# Measured values taken from patent US7968526B2, “Antisense oligonucleotides directed to ribonucleotide reductase R2 and uses thereof in the treatment of cancer” (Lorus Therapeutics Inc., priority 2003, dated 2011).
# “Also recorded” adds a separate entry of the source.
# Key:
# Type in all cases: in vivo, human cells in mice
# [1] = system: Caki-1 human renal cancer cells; experiment: Caki-1 renal tumour xenograft, combination with 5-FU or vinblastin (1.3); conditions: Caki (renal), CD-1 mouse as printed; SEQ ID NO:1 10 mg/kg i.v. every other day; 5-FU 13 mg/kg/day i.p.; vinblastin 0.6 mg/kg/week i.p.
# Description: All treatments were stopped at day 22. […] All treatments were stopped at day 32. […] All treatments were stopped at day 36.
# [2] = system: A498 human kidney cancer cells; experiment: A498 kidney tumour xenograft in SCID mice, controls and chemotherapeutics (Example 7); conditions: oligonucleotides 10 mg/kg/2 days i.v., 5-FU 13 mg/kg/day×5, vinblastine 1 mg/kg/week, gemcitabine 100 mg/kg/week
# Description: CD-1 athymic female nude mice, BALB/c nu/nu nude mice, SCID, and SCID beige mice were purchased from Charles River Laboratories (Montreal, Canada) and experiments were typically initiated when the mice were 6-7 weeks old. […] Each experimental group typically contained 10 mice. After the size of tumour reached a mean tumour volume of 50-100 mm^3, treatment was initiated. […] Anti-tumour activity was estimated by the measurement of tumour volume with a calliper at two-three day intervals. Tumour volume was calculated by a formula L×W×H/2, where L indicates length, W indicates width and H indicates height. Within 24 hours after the last treatment, the animals were sacrificed and tumour and body weights were measured. Results of statistical analyses of the data are presented as P values in the figure legends.
# Three additional treatment groups received: 5-FU (13 mg/kg/day×5), vinblastine (1 mg/kg/week) and gemcitabine (100 mg/kg/week). […] Caliper measurements at 1-week intervals were used to calculate tumour volumes. Each point in FIG. 28C represents mean tumour volume calculated from 10 animals per experimental group (with the exception of SEQ ID NO: 1 which was 8 animals). […] After 54 days the mice were sacrificed and the A498 tumours weighed. Each bar represents the mean tumour weight and standard error calculated for each treatment group.
# [3] = system: MDA-MB-231 human breast cancer cells; experiment: MDA-MB-231 breast tumour xenograft in CD-1 nude mice, combination with taxol or doxorubicin (1.7); conditions: MDA-MB-231 (breast), CD-1; SEQ ID NO:1 10 mg/kg i.v. every other day; Taxol 10 mg/kg i.v. weekly; doxorubicin 5 mg/kg i.v. weekly
# Method: After 52 days the mice were sacrificed and the tumours weighed. […] Mitoxantrone was administered intravenously once at the beginning of the treatments at a dose of 2 mg/kg (FIG. 4A) or once a week for four weeks at a reduced dose of 0.8 mg/kg (FIG. 4B). All treatments were stopped at day 50 (FIG. 4A) or 48 (FIG. 4B), respectively. […] Mitoxantrone was administered intravenously once at the beginning of the treatments at a dose of 2 mg/kg (FIG. 5A) or once a week for four weeks at a reduced dose of 0.8 mg/kg (FIG. 5B). All treatments were stopped at day 42 (FIG. 5A) or 38 (FIG. 5B), respectively. […] A2058 is a metastatic melanoma cell line. […] All treatments were stopped at day 24. […] Taxol was administered intravenously once a week at a dose of 10 mg/kg for three (FIG. 7A) or four weeks (FIG. 7C). Doxorubicin was administered intravenously once a week at a dose of 5 mg/kg for first three weeks (FIG. 7A) or for two weeks (FIG. 7C). All treatments were stopped at day 33 (FIG. 7A) or at day 26 (FIG. 7C), respectively. […] In FIG. 7C, antitumour activities were estimated by the inhibition of tumour volume, which was measured with calipers. Each point represents mean tumour volume calculated from 10 animals per experimental group. […] Taxol was administered intravenously once a week for first three weeks and intraperitoneally once a week for next two weeks at a dose of 10 mg/kg. Cisplatin was administered intravenously once a week for first three weeks and intraperitoneally once a week for next two weeks at a dose of 4 mg/kg. All treatments were stopped at day 40. Antitumour activities were estimated by the inhibition of tumour volume, which was measured with caliper. Each point represents mean tumour volume calculated from 9 animals per experimental group.
SMILES,Tumour weight as % of saline control [1],Effect on tumour growth (volume and weight) [2],Tumour weight as % of saline control [3]
"O=c1[nH]cc(F)c(=O)[nH]1 [5-FU, 5-fluorouracil]",52%,ineffective in stabilization of the tumours; also recorded: tumours that were equal in volume and weight to tumours of saline-treated animals,–
COc1cccc2c1C(=O)c1c(O)c3c(c(O)c1C2=O)C[C@@](O)(C(=O)CO)C[C@@H]3O[C@H]1C[C@H](N)[C@H](O)[C@H](C)O1 [Doxorubicin],–,–,41%
